# Experimental data published in PMC8406304, “Inhibiting Type VI Secretion System Activity with a Biomimetic Peptide Designed To Target the Baseplate Wedge Complex” (mBio, 2021).
# Entries after “also recorded” stand apart in the source; their conditions may differ.
# Legend:
# [1] = test system: TssK; assay: Isothermal titration calorimetry (ITC), TssK-WT; type: binding, enteroaggregative Escherichia coli (EAEC); conditions: 25°C
# Description: To evaluate the direct interaction between the BCP and its target TssK, we performed isothermal titration calorimetry (ITC) experiments. The wild-type BCP and TssK interact with an observable affinity (KD) of 60 μM (Fig. 5A).
# The working buffer for both proteins and peptide was 50 mM HEPES (pH 7.0), 150 mM NaCl to avoid buffer mismatch. The experiments were performed at 25°C using the MicroCal PEAQ-ITC instrument (Malvern Panalyticals, Malvern, UK) in duplicate with 19 injections, first with an initial injection of 0.4 μl followed by 18 injections of 2 μl. Two assays were performed. In the first, 25 μM WT TssK ligand was in the cell and 1 mM WT BCP analyte was in the syringe. In the second, 25 μM TssK L14A ligand was in the cell and 1 mM WT BCP analyte was in the syringe. The reaction was performed with a constant stirring speed of 750 rpm; each injection lasted for 4 s with a 150-s space between injections. A constant heat control (offset) was removed from the raw data to account for heat dilution before integration. The data were fitted using the One Set of Sites model in the PEAQ-ITC analysis software.
# [2] = NMR of the free cyclic peptide; type: physicochemical; conditions: 1H-NOESY, 1.8 mM peptide, 50 mM KPO4 pH 6.9, 150 mM NaCl, 300 K
# Description: All NMR experiments were recorded at 300 K on a Bruker Avance-II 600 MHz spectrometer equipped with a cryoprobe at the IMM (Institut de Microbiologie de la Mediterranée) NMR platform. The 450-μl peptide sample tube was prepared at 1.8 mM in KPO4 buffer (50 mM KPO4 [pH 6.9], 150 mM NaCl) complemented with 30 μl D2O. 1D ^1H-^1H-TOCSY, ^1H-NOESY, and ^1H-^15N HSQC spectra (F2 = 2048; F1 = 128; NS = 384) (NS is the number of scans [accumulation] for the experiment; F2 is the sweep width; F1 is the Fourier number that defines the 2D spectrum dimensions and its digital resolution) were recorded using default pulse sequences as provided by the manufacturer. For the peptide-TssK interaction experiments, 200 μl of a 410 μM stock of TssK was added to the same sample tube (1.2 mM peptide and 140 μM TssK [final concentration]), and all NMR spectra were recorded with the addition of longer ^1H-^15N HSQC spectrometry (NS = 1,024). All spectra were transformed and the figures were generated using Bruker Topspin 4.0.9.
# [3] = test system: TssK-sfGFP foci in EAEC (assembled baseplates); type: cell-based, enteroaggregative Escherichia coli (EAEC)
# Description: Fluorescence microscopy experiments were performed as previously described ([97], [98]). An overnight culture in LB of EAEC strain with a chromosomal GFP fusion to TssK was diluted 1/200 in SIM medium and grown at 37°C until the culture reached an A600 of ∼0.8. Ten optical density units (ODU) was pelleted for 10 min at 3,500 × g, resuspended at 1 ODU/ml in the same SIM medium supplemented with 0.8 M NaCl, and equilibrated for 1 h at room temperature. Cells were pelleted for 10 min at 3,500 × g, resuspended in 100 μl of classical SIM without NaCl supplemented with 1 mM peptide of buffer, and incubated for 20 min at room temperature. Cells were diluted in classical SIM medium at 0.4 ODU/ml and incubated at 37°C 160 rpm until the absorbance again reached ∼0.8. Ten ODU was harvested and resuspended in fresh SIM medium. Cell mixtures were spotted on a thin pad of SIM medium supplemented with 2% agarose, covered with a coverslip, and incubated for 20 to 30 min at room temperature before microscopy acquisition. Fluorescence microscopy was performed with a Nikon Eclipse Ti2 microscope equipped with a 100× objective (numerical aperture, 1.45), an Orca-Fusion digital camera (Hamamatsu), and a perfect focus system (PFS) to automatically maintain focus so that the point of interest within a specimen is kept in sharp focus at all times despite mechanical or thermal perturbations. All fluorescence images were acquired in Hilo mode using an Ilas2 TIRF module (Gataca Systems). Exposure times were typically 100 ms for phase contrast and 100 ms using the GFP channel. For image treatment, noise and background were reduced by filtering large structures down to 40 pixels in the FFT Bandpass Filter function of ImageJ ([102]). The GFP foci were automatically detected using the MicrobeJ plugin ([103]).
# [4] = test system: EAEC; assay: Bacterial growth / toxicity of the peptide; type: cell-based, enteroaggregative Escherichia coli (EAEC); conditions: up to 1 mM, EAEC TssK-GFP in SIM medium, OD at 600 nm; biological triplicates
substance,measurement,setting,value
"SRPVMG-SRPVMG-SRPVMG (head to tail) [BCP, biomimetic cyclic peptide SRPVMG-SRPVMG-SRPVMG mimicking TssG foot 1]",ITC binding signature: enthalpy / ΔG,"[1]; ITC signature plot, TssK-WT with BCP, pH 7.0",driven by a favorable enthalpy; also recorded: enthalpy-driven interaction with a favorable ΔG
same,Kd,"[1]; ITC, 25 μM TssK-WT in cell, 1 mM BCP in syringe, 50 mM HEPES pH 7.0, 150 mM NaCl, duplicate, One Set of Sites fit, read-out: observable affinity (KD)",60 µM
same,3D folding / internal structure of free peptide,[2],absence of an internal structure of the free peptide
same,time of maximum effect after peptide entry,[3]; 1 mM,within the first hour after peptide entry
same,increase in proportion of bacteria with no observable TssK-sfGFP foci,"[3]; 1 mM peptide, hypo-osmotic shock (osmoporation), vs peptide-free treated cells, ∼500 cells per condition, triplicate",~30%
same,number of fluorescent TssK-sfGFP foci,"[3]; 1 mM peptide, hypo-osmotic shock, in words, ∼500 cells per condition, triplicate",decreased TssK-sfGFP foci compared to both control peptides
same,TssK-GFP foci without osmotic shock,"[3]; BCP, cells without osmotic shock, compared to cells without peptide",comparable to those without peptide
same,requirement of hypo-osmotic shock for entry into cells,"[3]; EAEC TssK-GFP, SIM medium, NaCl-induced hypo-osmotic shock",mandatory for BCP entry into cells
same,toxicity for bacteria,[4],not toxic for bacteria up to 1 mM; also recorded: no impact on the growth of EAEC
